Results as given in paper PMC10269165 (Antimicrobial Agents and Chemotherapy, 2023).

Test system: MDR isolate of H. contortus, exsheathed L3 larvae
Experiment: Larval motility assay (LMA), Worminator
Type: cell-based, Haemonchus contortus
Excerpt: The H. contortus isolates used were TxPh-2011-S (Texas A&M University, USA) and UGA MDR 2020 (University of Georgia Athens, USA). TxPh-2011-S (Texas A&M University, USA) was originally isolated from Pronghorn antelope in West Texas in 2011 and is fully drug susceptible, phenotypically determined by the DrenchRite larval development assay (LDA; Microbial Screening Technologies, Kemps Creek, Australia). To establish this as a laboratory isolate, it was initially passaged in goats at Texas A&M University and then at The University of Georgia using both goats and sheep, and it is currently maintained in lambs at Louisiana State University. A nemabiome assay ([69]) was conducted at the University of Calgary to confirm that the isolate is 100% H. contortus. The UGA MDR 2020 (University of Georgia Athens, USA) isolate is resistant to ivermectin, benzimidazoles, levamisole, and moxidectin, as determined by the DrenchRite LDA. To establish this as a laboratory isolate, feces collected from a sheep farm in Georgia with known history of multiple anthelmintic resistance were cultured. Two donor goats were infected with the larvae recovered, which were morphologically ([70]) identified as 89% H. contortus. A fecal egg count reduction test (FECRT) was then performed in the infected goats. First, a combination treatment with albendazole at 15 mg/kg and ivermectin at 0.4 mg/kg was performed, followed by a treatment with levamisole at 12 mg/kg. Later, and to confirm resistance to moxidectin, another treatment was administered using a dose of 0.4 mg/kg of moxidectin. Posttreatment feces were recovered, coprocultures were established, and L3 larvae were identified as 100% H. contortus. Resistance to all drugs was subsequently confirmed using a DrenchRite assay.
For LMAs, the first phase testing using compounds NSC133100 and NSC177383 was done using the Worminator system in parallel with the LDA. Initial stock solutions of 12.5 mM were prepared for each compound using 100% DMSO as a solvent. Initial stock solutions (25 μL) were then diluted in 475 μL of culture media to yield working stock solutions of 625.00, 156.30, 39.10, 9.80, 2.40, 0.60, 0.20, 0.04, and 0.00 μM in 5% DMSO for each drug. In plate, 200 μL of working stock solutions were then diluted in 800 μL of culture media, yielding concentrations of 125.00, 31.25, 7.81, 1.95, 0.49, 0.12, and 0.00 μM in 1% DMSO. For the second phase of testing, compounds showing anthelmintic activity with the LDA were tested in a second round at higher concentrations than in the first phase of testing. Initial stocks of 50 mM were prepared for compounds NSC133100, NSC177383, NSC145612, and NSC56410 using 100% DMSO as a solvent. Initial stock solutions (25-μL portions) were then diluted in 475 μL of culture media consisting of 65% Lauria-Bertani (LB) (Thermo Fisher Scientific, Branchburg, NJ), 25% NCTC (Sigma-Aldrich), 10% fetal bovine serum (Atlanta Biologicals, Flowery Branch, GA), Pen/Strep (Sigma-Aldrich) at a final concentration of […], and amphotericin B (Sigma-Aldrich) at a final concentration of […]. The working stock solutions yielded concentrations of 2,500.00, 625.00, 156.30, 39.10, 9.80, 2.40, and 0.00 μM in 5% DMSO for each compound. In each well in the plate, 200 μL of working stock solutions were then diluted in 800 μL of culture media, yielding final concentrations of 500.00, 125.00, 31.30, 7.81, 1.95, 0.49, and 0.00 μM in 1% DMSO.
For the motility assays, 24-well plates with inserts were used (Costar, catalog no. 3379; Corning, Inc., Corning, NY). Portions (640 μL) of culture media were added to each well, and approximately 50 exsheathed larvae contained in 160 μL of culture media in each insert. Once pretreatment readings were taken, 160 μL of the drug solution was added to the well, and another 40 μL was added to the insert, reaching the final concentrations described in the protocol above. All concentrations were tested in triplicate. […]

SMILES	Percent inhibition of larval motility (15.625 µM, 1 hour)	Percent inhibition of larval motility (15.625 µM, 4 hours)	Percent inhibition of larval motility (15.625 µM, 24 hours)	Percent inhibition of larval motility (15.625 µM, 48 hours)	Percent inhibition of larval motility (15.625 µM, 72 hours)	Percent inhibition of larval motility (15.625 µM, 96 hours)	Percent inhibition of larval motility (15.625 µM, Initial)	Percent inhibition of larval motility (31.25 µM, 1 hour)	Percent inhibition of larval motility (31.25 µM, 4 hours)	Percent inhibition of larval motility (31.25 µM, 24 hours)	Percent inhibition of larval motility (31.25 µM, 48 hours)	Percent inhibition of larval motility (31.25 µM, 72 hours)	Percent inhibition of larval motility (31.25 µM, 96 hours)	Percent inhibition of larval motility (31.25 µM, Initial)	Percent inhibition of larval motility (62.5 µM, 4 hours)	Percent inhibition of larval motility (62.5 µM, 24 hours)	Percent inhibition of larval motility (62.5 µM, 48 hours)	Percent inhibition of larval motility (125 µM, 1 hour)	Percent inhibition of larval motility (125 µM, 4 hours)	Percent inhibition of larval motility (125 µM, 24 hours)	other results
CO[C@@H]1/C=C\O[C@]2(C)Oc3c(C)c(O)c4c(O)c(c(CN(C)C)c(O)c4c3C2=O)NC(=O)/C(C)=C\C=C[C@@H](C)[C@@H](O)[C@H](C)[C@@H](O)[C@H](C)[C@H](OC(C)=O)[C@@H]1C [NSC145612]	-10.3%	7.3%	7.0%	8.1%	23.0%	17.4%	20.3%	20.1%	-11.2%	27.2%	21.9%	43.2%	3.9%	21.0%	32.0%	10.4%	14.1%	31.7%	34.3%	15.7%	Percent inhibition of larval motility (125 µM, 48 hours): 8.1%; Percent inhibition of larval motility (125 µM, 72 hours): 3.0%; Percent inhibition of larval motility (125 µM, 96 hours): -6.9%; Percent inhibition of larval motility (125 µM, Initial): 21.6%; Percent inhibition of larval motility (250 µM, 1 hour): 13.0%; Percent inhibition of larval motility (250 µM, 24 hours): -8.6%; Percent inhibition of larval motility (250 µM, 48 hours): 13.8%; Percent inhibition of larval motility (250 µM, 96 hours): 12.8%; Percent inhibition of larval motility (250 µM, Initial): 25.9%; Percent inhibition of larval motility (500 µM, 1 hour): -19.2%; Percent inhibition of larval motility (500 µM, 4 hours): 0.4%; Percent inhibition of larval motility (500 µM, 24 hours): -12.0%; Percent inhibition of larval motility (500 µM, 48 hours): 14.1%; Percent inhibition of larval motility (500 µM, 72 hours): 9.6%; Percent inhibition of larval motility (500 µM, 96 hours): -5.1%; Percent inhibition of larval motility (500 µM, Initial): 9.3%
CO[C@H]1/C=C/O[C@@]2(C)Oc3c(C)c(O)c4c(O)c(cc(O)c4c3C2=O)NC(=O)/C(C)=C\C=C\[C@H](C)[C@H](O)[C@@H](C)[C@@H](O)[C@@H](C)[C@H](OC(C)=O)[C@@H]1C [NSC133100]	6.1%	6.9%	-6.8%	-11.1%	-11.7%	-3.4%	-7.4%	6.3%	1.6%	0.6%	11.9%	3.1%	5.5%	-21.7%	-11.1%	-12.6%	-2.3%	33.8%	3.0%	-6.2%	Percent inhibition of larval motility (125 µM, 48 hours): 18.4%; Percent inhibition of larval motility (125 µM, 72 hours): 14.0%; Percent inhibition of larval motility (125 µM, 96 hours): 26.6%; Percent inhibition of larval motility (125 µM, Initial): -12.3%; Percent inhibition of larval motility (250 µM, 1 hour): 38.9%; Percent inhibition of larval motility (250 µM, 24 hours): -12.4%; Percent inhibition of larval motility (250 µM, 48 hours): 28.6%; Percent inhibition of larval motility (250 µM, 96 hours): 0.9%; Percent inhibition of larval motility (250 µM, Initial): -11.5%; Percent inhibition of larval motility (500 µM, 1 hour): 33.9%; Percent inhibition of larval motility (500 µM, 4 hours): -2.0%; Percent inhibition of larval motility (500 µM, 24 hours): -0.5%; Percent inhibition of larval motility (500 µM, 48 hours): 22.2%; Percent inhibition of larval motility (500 µM, 72 hours): 12.1%; Percent inhibition of larval motility (500 µM, 96 hours): 18.5%; Percent inhibition of larval motility (500 µM, Initial): 5.8%
CO[C@@H]1/C=C/O[C@@]2(C)Oc3c(C)c(O)c4c(c3C2=O)C(=N[C@@H]2CC[C@@H](O)O[C@H]2C)C=C(NC(=O)/C(C)=C\C(=O)[C@@H]2C[C@@H]2[C@H](O)[C@@H](C)[C@@H](O)[C@@H](C)[C@H](OC(C)=O)[C@@H]1C)C4=O [NSC177383]	-22.8%	-24.6%	15.6%	3.0%	-5.8%	-22.4%	19.9%	2.3%	5.2%	13.8%	41.2%	25.5%	17.1%	23.2%	-28.6%	23.5%	26.0%	26.8%	-34.1%	20.5%	Percent inhibition of larval motility (125 µM, 48 hours): 31.1%; Percent inhibition of larval motility (125 µM, 72 hours): 4.1%; Percent inhibition of larval motility (125 µM, 96 hours): 5.7%; Percent inhibition of larval motility (125 µM, Initial): 22.5%; Percent inhibition of larval motility (250 µM, 1 hour): 28.8%; Percent inhibition of larval motility (250 µM, 24 hours): 30.2%; Percent inhibition of larval motility (250 µM, 48 hours): 44.8%; Percent inhibition of larval motility (250 µM, 96 hours): 31.2%; Percent inhibition of larval motility (250 µM, Initial): 43.9%; Percent inhibition of larval motility (500 µM, 1 hour): 27.1%; Percent inhibition of larval motility (500 µM, 4 hours): -12.9%; Percent inhibition of larval motility (500 µM, 24 hours): 26.6%; Percent inhibition of larval motility (500 µM, 48 hours): 49.1%; Percent inhibition of larval motility (500 µM, 72 hours): 32.3%; Percent inhibition of larval motility (500 µM, 96 hours): 21.4%; Percent inhibition of larval motility (500 µM, Initial): 36.4%
